# Measurements published in patent publication US20240059710A1, “KRAS G12D Inhibitors” (Jacobio Pharmaceuticals Co., Ltd., priority 2020, published 2024).
# Read-outs that look alike come from different tables or passages of the source.
# Legend:
# [1] = molecular target: T1, GDP-loaded HIS-KRAS (G12D, aa 1-169) (Homo sapiens, UniProt P01116, G12D); test: SOS1 catalyzed nucleotide exchange assay; assay type: biochemical; details: SOS1 ExD, TR-FRET, 4 hours at 25° C.
# T1 construct: GDP-loaded HIS-KRAS (G12D, aa 1-169)
# T1 sequence (P01116 1-169 isoform P01116-2 G12D): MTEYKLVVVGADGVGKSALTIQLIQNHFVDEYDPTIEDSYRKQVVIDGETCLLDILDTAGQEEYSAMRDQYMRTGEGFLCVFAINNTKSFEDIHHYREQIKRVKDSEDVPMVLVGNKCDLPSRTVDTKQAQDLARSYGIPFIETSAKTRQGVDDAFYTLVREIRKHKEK
# Experimental: 1. SOS1 Catalyzed Nucleotide Exchange Assay
# GDP-loaded HIS-KRAS (G12D, aa 1-169) was pre-incubated with a compound in the presence of 10 nM GDP in a 384-well plate (Greiner) for 15 min, then purified SOS1 ExD (Flag tag, aa 564-1049), BODIPY™ FL GTP (Invitrogen) and MAb (monoclonal antibody) Anti 6HIS-Tb cryptate Gold (Cisbio) were added to the assay wells (Final concentration: 1.5 nM GDP-loaded HIS-KRAS (G12D), 5 nM GDP, 0.5 μM SOS1 ExD, 80 nM BODIPY™ FL GTP, 52.5 ng/mL MAb Anti 6HIS-Tb cryptate Gold) and incubated for 4 hours at 25° C. Wells containing same percent of DMSO served as vehicle control, and wells without KRAS served as low control. TR-FRET signals were read on Tecan Spark multimode microplate reader. The parameters were F486: Excitation 340 nm, Emission 486 nm, Lag time 100 μs, Integration time 200 μs; F515: Excitation 340 nm, Emission 515 nm, Lag time 100 μs, Integration time 200 μs. TR-FRET ratios for each individual wells were calculated by equation: TR-FRET ratio=(Signal F515/Signal F486)*10000. The percent of activation of compounds treated wells were normalized between vehicle control and low control (% Activation=(TR-FRET ratioCompound treated−TR-FRET ratioLow control)/(TR-FRET ratioVehicle control−TR-FRET ratioLow control)*100%). Then the data were analyzed either by fitting a 4-parameter logistic model or by Excel to calculate IC50 values.
# AGS = test: Cell growth inhibition assay (AGS); assay type: cell-based; details: 6 days incubation, CellTiter-Glo
# Experimental: (§1) 4. Cell Growth Inhibition Assay
# AGS cultured in F12K medium (Gibco) containing 10% fetal bovine serum (Gibco). Cells in culture medium were plated in 96-well plates at a concentration of 500 cells/well ([…]) and allowed to attach overnight.
# (§2) The next day, compounds were diluted in culture medium and added to the plates. After 6 days incubation in a 37° C./5% CO2 cell incubator, the cell viability was detected by CellTiter-Glo® Luminescent Cell Viability Assay kit (Promega). Luminescent signals were read on Tecan Spark multimode microplate reader and analyzed using a 4-parameter logistic model to calculate IC50 values.
# [2] = molecular target: T2, GppNp-loaded HIS-KRAS (G12D, aa 1-169) / cRAF RBD (Homo sapiens, UniProt P01116, G12D); test: GTP-KRAS and cRAF interaction assay; assay type: binding; details: HTRF, 2 hours at 25° C.
# T2 construct: GppNp-loaded HIS-KRAS (G12D, aa 1-169)
# T2 sequence (P01116 1-169 isoform P01116-2 G12D): as above
# Experimental: 2. GTP-KRAS and cRAF Interaction Assay
# GppNp-loaded HIS-KRAS (G12D, aa 1-169) was pre-incubated with a compound in the presence of 200 µM GTP in a 384-well plate (Greiner) for 15 min, then cRAF RBD (GST tag, aa 50-132, CreativeBioMart), MAb Anti GST-d2 (Cisbio) and MAb Anti 6HIS-Tb cryptate Gold (Cisbio) were added to the assay wells (Final concentration: 2.0 nM GppNp-loaded HIS-KRAS (G12D), 100 μM GTP, 35 nM cRAF RBD, 1 μg/mL MAb Anti GST-d2, 52.5 ng/mL MAb Anti 6HIS-Tb cryptate Gold) and incubated for 2 hours at 25° C. Wells containing same percent of DMSO served as vehicle control, and wells without KRAS served as low control. HTRF signals were read on Tecan Spark multimode microplate reader and HTRF ratios were calculated under manufacturer's instructions. The percent of activation of compounds treated wells were normalized between vehicle control and low control (% Activation=(HTRF ratioCompound treated−HTRF ratioLow control)/(HTRF ratioVehicle control−HTRF ratioLow control)*100). Then the data were analyzed either by fitting a 4-parameter logistic model or by Excel to calculate IC50 values.
# [3] = test system: AGS cells expressing KRAS G12D; test: Phospho-ERK1/2(THR202/TYR204) HTRF assay; assay type: cell-based; details: 2 hours incubation, read-out: AGS p-ERK IC50
# Experimental: AGS cells expressing KRAS G12D were cultured in F12K medium (Gibco) containing 10% fetal bovine serum (Gibco). The AGS cells in culture medium were seeded in 96-well plates at a concentration of 40,000 cells/well and then put in a 37° C./5% CO2 cell incubator to incubate overnight. The next day, culture medium was removed and the compound diluted in assay medium (F12K, 0.1% FBS) was added in each well. After 2 hours incubation in a 37° C./5% CO2 cell incubator, the assay medium in 96-well plates was removed, then 50 μL of 1× blocking reagent-supplemented lysis buffer (Cisbio) was added and the plates were incubated at 25° C. for 45 min with shaking. 10 μL of cell lysates from the 96-well plates were transferred to a 384-well plate (Greiner) containing 2.5 μL/well HTRF® pre-mixed antibodies (Cisbio 64AERPEH). Incubate 4 hours at 25° C. and then read HTRF signals on Tecan Spark multimode microplate reader. The data were analyzed using a 4-parameter logistic model to calculate IC50 values.
# AsPC-1 = test: Cell growth inhibition assay (AsPC-1); assay type: cell-based; details: AsPC-1, 6 days incubation, CellTiter-Glo
# Experimental: as §1
# AsPC-1 cultured in RPMI-1640 medium (Gibco) containing 10% fetal bovine serum (Gibco). Cells in culture medium were plated in 96-well plates at a concentration of 1000 cells/well ([…]) and allowed to attach overnight.
# as §2
Structure (SMILES),IC50 [1] [nM],IC50 (AGS) [nM],IC50 [2] [nM],IC50 [3] [nM],IC50 (AsPC-1) [nM],"IC50 (AGS; Homo sapiens, 144 h) [nM]",IC50 ([3]; Homo sapiens) [nM],"IC50 (AsPC-1; Homo sapiens, ASPC1, 144 h) [nM]"
"C#Cc1cccc2cc(O)cc(-c3c(F)cc4c(N5CC6CCC(C5)N6)nc(OCC5(CN6CCOCC6)CC5)nc4c3F)c12 (single isomer, unassigned) [Compound 41B]",6.9,0.671,50.4,1.01,3.84,,,
"C#Cc1cccc2cc(O)cc(-c3c(SC(F)(F)F)cc4c(N5CC6CCC(C5)N6)nc(OCC5(CN6CCOCC6)CC5)nc4c3F)c12 (single isomer, unassigned) [Compound 59B]",1.65,6,6.28,10.8,5.54,,,
"C#Cc1cccc2cc(O)cc(-c3c(C#N)cc4c(N5CC6CCC(C5)N6)nc(OCC5(CN6CCOCC6)CC5)nc4c3F)c12 (single isomer, unassigned) [Compound 60B]",12.5,13.1,62.9,6.96,207,,,
"C#Cc1cccc2cc(O)cc(-c3c(Cl)cc4c(N5CC6CCC(C5)N6)nc(OC[C@@]56CCCN5C[C@H](F)C6)nc4c3F)c12 (single isomer, unassigned) [Compound 72B]",3.3,4.71,23,1.51,48.7,,,
"C#Cc1cccc2cc(O)cc(-c3c(C(F)(F)F)cc4c(N5CC6CCC(C5)N6)nc(OCC5(CN6CCOCC6)CC5)nc4c3F)c12 (single isomer, unassigned) [Compound 98A]",219,319,4260,1830,1440,,,
"C#Cc1cccc2cc(O)cc(-c3c(C(F)(F)F)cc4c(N5CC6CCC(C5)N6)nc(OCC5(CN6CCOCC6)CC5)nc4c3F)c12 (single isomer, unassigned) [Compound 98B]",0.826,6.03,11.2,11.6,36.7,,,
"C#Cc1cccc2cc(O)cc(-c3c(Cl)cc4c(N5CC6CCC(C5)N6)nc(OCC5(CN6CCOCC6)CC5)nc4c3Cl)c12 (single isomer, unassigned) [Compound 107B]",3.16,,399,,,150,57.6,395
C#Cc1cccc2cc(O)cc(-c3ccc4c(N5CC6CCC(C5)N6)nc(OCC5(CN6CCOCC6)CC5)nc4c3F)c12 [Compound 34],8.73,,12.6,,,11.1,2.16,19.1
C#Cc1cccc2cc(O)cc(-c3c(Cl)cc4c(N5CC6CCC(C5)N6)nc(OCC5(CN6CCOCC6)CC5)nc4c3F)c12 [Compound 35],10.4,,113,,,8.58,32.2,99.3
C#Cc1cccc2cc(O)cc(-c3c(C4CC4)cc4c(N5CC6CCC(C5)N6)nc(OCC5(CN6CCOCC6)CC5)nc4c3F)c12 [Compound 38],13.8,,126,,,51,19.8,141
C#Cc1cccc2cc(O)cc(-c3c(C)cc4c(N5CC6CCC(C5)N6)nc(OCC5(CN6CCOCC6)CC5)nc4c3F)c12 [Compound 40],27.7,,74.3,,,15.4,3.72,55.5
